Target: T1, full-length human PKCι (Homo sapiens, UniProt P41743)
T1 construct: Recombinant, full-length human PKCι expressed in Sf21 insect cells is also commercially available; purchased EMD Millipore; host or cells: Sf21 insect cells (baculovirus)
T1 sequence (P41743 1-596): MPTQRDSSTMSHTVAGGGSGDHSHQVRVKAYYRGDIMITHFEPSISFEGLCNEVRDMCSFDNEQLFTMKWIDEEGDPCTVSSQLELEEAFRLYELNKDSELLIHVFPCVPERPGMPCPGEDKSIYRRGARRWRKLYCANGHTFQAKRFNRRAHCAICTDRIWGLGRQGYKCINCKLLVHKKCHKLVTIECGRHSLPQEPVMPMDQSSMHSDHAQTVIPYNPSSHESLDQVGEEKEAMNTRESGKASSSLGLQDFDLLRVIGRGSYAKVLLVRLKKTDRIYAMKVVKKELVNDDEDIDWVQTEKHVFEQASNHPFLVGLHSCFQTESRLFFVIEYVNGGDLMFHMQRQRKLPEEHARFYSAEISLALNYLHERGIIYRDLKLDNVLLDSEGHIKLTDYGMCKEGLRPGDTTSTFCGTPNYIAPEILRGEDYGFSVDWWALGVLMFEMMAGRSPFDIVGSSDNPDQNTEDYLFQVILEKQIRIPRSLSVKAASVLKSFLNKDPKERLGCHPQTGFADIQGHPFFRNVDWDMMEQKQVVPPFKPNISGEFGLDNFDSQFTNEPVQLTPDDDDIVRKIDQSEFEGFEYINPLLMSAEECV
Assay: PKCι IC50 IMAP fluorescence polarisation assay, full-length enzyme, 150 μM ATP
Type: biochemical
Details: read-out: IC50 in IMAP assay against full length PKCi at 150 μM ATP
Method in brief: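 IMAP fluorescence polarisation kinase assay: 15 pM baculovirus-expressed human PKCiota with 100 nM FAM-pseudosubstrate peptide and 150 μM ATP, 1 h at 25 °C. IMAP detection reagent then 2 h at 25 °C before FP measurement. Inhibition referenced to no-compound and no-enzyme controls for IC50 fitting.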

## N[C@@H]1CN(c2nc(-c3ccnc4[nH]c5ccccc5c34)nc3cncc(C4CCC4)c23)C[C@H]1O (racemic) [Example 343, rac-(3R,4R)-4-Amino-1-[5-cyclobutyl-2-(9H-pyrido[2,3-b]indol-4-yl)-pyrido[3,4-d]pyrimidin-4-yl]-pyrrolidin-3-ol]
  IC50: 100 to 1000 nM

## O[C@H]1CNCC[C@H]1Nc1nc(-c2ccnc3[nH]c4ccccc4c23)nc2cncc(C3CCC3)c12 (racemic) [Example 344, rac-(3S,4R)-4-[5-Cyclobutyl-2-(9H-pyrido[2,3-b]indol-4-yl)-pyrido[3,4-d]pyrimidin-4-ylamino]-piperidin-3-ol]
  IC50: < 100 nM

## O[C@@H]1CNCC[C@H]1Nc1nc(-c2ccnc3[nH]c4ccccc4c23)nc2cncc(C3CCC3)c12 (racemic) [Example 345, rac-(3R,4R)-4-[5-Cyclobutyl-2-(9H-pyrido[2,3-b]indol-4-yl)-pyrido[3,4-d]pyrimidin-4-ylamino]-piperidin-3-ol]
  IC50: < 100 nM

## C[C@@H]1CNCC[C@H]1Nc1nc(-c2ccnc3[nH]c4ccccc4c23)nc2cncc(C3CCC3)c12 (racemic) [Example 346, [5-Cyclobutyl-2-(9H-pyrido[2,3-b]indol-4-yl)-pyrido[3,4-d]pyrimidin-4-yl]-(rac-(3R,4R)-3-methyl-piperidin-4-yl)-amine]
  IC50: < 100 nM

## C[C@H]1CNCC[C@H]1Nc1nc(-c2ccnc3[nH]c4ccccc4c23)nc2cncc(C3CCC3)c12 (racemic) [Example 347, [5-Cyclobutyl-2-(9H-pyrido[2,3-b]indol-4-yl)-pyrido[3,4-d]pyrimidin-4-yl]-(rac-(3S,4R)-3-methyl-piperidin-4-yl)-amine]
  IC50: < 100 nM

## O[C@H]1CNCC[C@H]1Nc1nc(-c2ccnc3[nH]c4ccccc4c23)nc2cncc(C(F)(F)F)c12 (racemic) [Example 349, rac-(3S,4R)-4-[2-(9H-Pyrido[2,3-b]indol-4-yl)-5-trifluoromethyl-pyrido[3,4-d]pyrimidin-4-ylamino]-piperidin-3-ol]
  IC50: 100 to 1000 nM

## O[C@@H]1CNCC[C@H]1Nc1nc(-c2ccnc3[nH]c4ccccc4c23)nc2cncc(C(F)(F)F)c12 (racemic) [Example 350, rac-(3R,4R)-4-[2-(9H-Pyrido[2,3-b]indol-4-yl)-5-trifluoromethyl-pyrido[3,4-d]pyrimidin-4-ylamino]-piperidin-3-ol]
  IC50: < 100 nM

## C[C@H]1CNCC[C@H]1Nc1nc(-c2ccnc3[nH]c4ccccc4c23)nc2cncc(C(F)(F)F)c12 (racemic) [Example 351, rac-(3S,4R)-3-Methyl-piperidin-4-yl)-[2-(9H-pyrido[2,3-b]indol-4-yl)-5-trifluoromethyl-pyrido[3,4-d]pyrimidin-4-yl]-amine]
  IC50: 100 to 1000 nM

## C[C@@H]1CNCC[C@H]1Nc1nc(-c2ccnc3[nH]c4ccccc4c23)nc2cncc(C(F)(F)F)c12 (racemic) [Example 352, (rac-(3R,4R)-3-Methyl-piperidin-4-yl)-[2-(9H-pyrido[2,3-b]indol-4-yl)-5-trifluoromethyl-pyrido[3,4-d]pyrimidin-4-yl]-amine]
  IC50: < 100 nM

## C[C@@]1(O)CNCC[C@H]1Nc1nc(-c2ccnc3[nH]c(-c4cc(F)ccc4Cl)cc23)nc2cncc(C3CC3)c12 (racemic) [Example 354, rac-(3R,4R)-4-{2-[2-(2-Chloro-5-fluoro-phenyl)-1H-pyrrolo[2,3-b]pyridin-4-yl]-5-cyclopropyl-pyrido[3,4-d]pyrimidin-4-ylamino}-3-methyl-piperidin-3-ol]
  IC50: < 100 nM

## O[C@@]12CCN(c3nc(-c4ccnc5[nH]c(-c6cc(F)ccc6Cl)cc45)nc4cncc(C5CC5)c34)[C@@H]1CCNC2 (racemic) [Example 358, rac(1R,3aS)-1-{2-[2-(2-Chloro-5-fluoro-phenyl)-1H-pyrrolo[2,3-b]pyridin-4-yl]-5-cyclopropyl-pyrido[3,4-d]pyrimidin-4-yl}-octahydro-pyrrolo[3,2-c]pyridin-3a-ol]
  IC50: < 100 nM
